Reference: ChEMBL document CHEMBL4828716, “Further investigation of harmicines as novel antiplasmodial agents: Synthesis, structure-activity relationship and insight into the mechanism of action” (Eur J Med Chem, 2021)
Active and inactive are the calls of the source. The rule behind the calls is not given here.

Legend:
[1] = test system: Plasmodium falciparum; assay: Antiplasmodial activity against chloroquine-sensitive erythrocytic stage Plasmodium falciparum 3D7 assessed as inhibition of parasite growth incubated for 3 days by HRP2-ELISA; type: functional, organism-based; settings: 3D7, 72 h
[2] = test system: Plasmodium falciparum; assay: Antiplasmodial activity against chloroquine-resistant erythrocytic stage Plasmodium falciparum Dd2 assessed as inhibition of parasite growth incubated for 3 days by HRP2-ELISA; type: functional, organism-based; settings: Dd2, 72 h
[3] = test system: Plasmodium berghei; assay: Antiplasmodial activity against hepatic stage Plasmodium berghei infected in Huh-7 cells assessed as cell viability incubated for 1 hrs by bioluminescence assay; type: functional, organism-based; settings: for IC50: Huh-7, 1 h
[4] = test system: HepG2; assay: Cytotoxicity against human HepG2 cells assessed as cell growth inhibition incubated for 1 day by neutral red assay; type: functional, cell-based; settings: HepG2, 24 h
[5] = Selectivity index, ratio of IC50 for human HepG2 cells to IC50 for […] erythrocytic stage Plasmodium falciparum 3D7; type: toxicity; settings: read-out: Selectivity Index

SMILES | IC50 [1] [µM] | IC50 [2] [µM] | Activity [3] | IC50 [4] [µM] | selectivity ratio [5] | IC50 [3] [µM]
COc1ccc(/C=C/Cn2cc(COc3ccc4[nH]c5c(C)nccc5c4c3)nn2)cc1 | 0.6 | 1.81 | Active | 88 | 147 | –
Cc1nc(Cn2cc(COC(=O)/C=C/c3cccc(Br)c3)nn2)cc2c1[nH]c1ccccc12 | 16.4 | 11.1 | Active | 110 | 6.71 | –
COc1ccc(/C=C/C(=O)NCCOc2ccc3[nH]c4c(C)nccc4c3c2)cc1 | 1.17 | 2.86 | Active | > 250 | > 214 | –
COc1ccc(/C=C/C(=O)OCc2cn(Cc3cc4c([nH]c5ccccc54)c(C)n3)nn2)cc1 | > 27.8 | > 27.8 | Active | – | – | –
Cc1nc(CNC(=O)/C=C/c2ccc(C(F)(F)F)cc2)cc2c1[nH]c1ccccc12 | 2.3 | 5.97 | Active | 33.3 | 14.5 | –
Cc1nc(Cn2cc(COC(=O)/C=C/c3ccccc3)nn2)cc2c1[nH]c1ccccc12 | > 20 | > 27.8 | Active | – | – | –
COc1ccc(/C=C/C(=O)NCc2cc3c([nH]c4ccccc43)c(C)n2)cc1 | 6.5 | 10.7 | Active | 10.4 | 1.6 | –
O=C(/C=C/c1cccc(F)c1)NCc1nccc2c1[nH]c1ccccc12 | > 27.8 | > 27.8 | – | – | – | –
O=C(/C=C/c1ccc(F)cc1)NCc1nccc2c1[nH]c1ccccc12 | > 13.9 | > 13.9 | – | – | – | –
COc1ccc2c3ccnc(C)c3n(CCNC(=O)/C=C/c3cccc(C(F)(F)F)c3)c2c1 | 0.06 | 0.33 | – | 66.3 | 1110 | 1.9
Cc1nc(CNC(=O)/C=C/c2cccc(F)c2)cc2c1[nH]c1ccccc12 | 5.74 | 12.7 | Active | 15.8 | 2.76 | –
Cc1nc(Cn2cc(COC(=O)/C=C/c3ccc(Cl)cc3)nn2)cc2c1[nH]c1ccccc12 | 21.4 | > 27.8 | Active | 70.5 | 3.29 | –
Cc1nc(CO)cc2c3ccccc3n(Cc3cn(C/C=C/c4ccc(Cl)cc4)nn3)c12 | > 19.9 | > 23.6 | Active | – | – | –
Cc1nccc2c1[nH]c1ccc(OCc3cn(C/C=C/c4ccccc4)nn3)cc12 | 0.61 | 2.12 | Active | 10.1 | 16.6 | –
O=C(/C=C/c1cccc(F)c1)OCc1cn(Cc2nccc3c2[nH]c2ccccc23)nn1 | > 17.3 | > 20.1 | – | – | – | –
COc1ccc(/C=C/Cn2cc(Cn3c4ccccc4c4cc(CO)nc(C)c43)nn2)cc1 | 18.2 | > 16.9 | Active | – | – | –
Cc1nc(CNC(=O)/C=C/c2cccc(Br)c2)cc2c1[nH]c1ccccc12 | 3.23 | 1.48 | Active | 9.64 | 2.98 | –
Cc1nccc2c1[nH]c1ccc(OCc3cn(C/C=C/c4cccc(Br)c4)nn3)cc12 | 0.26 | 0.73 | Active | 6.13 | 23.6 | –
O=C(/C=C/c1cccc(C(F)(F)F)c1)NCc1nccc2c1[nH]c1ccccc12 | > 27.8 | > 27.8 | – | – | – | –
Cc1nccc2c1[nH]c1ccc(OCCNC(=O)/C=C/c3ccc(Cl)cc3)cc12 | 0.36 | 0.92 | Active | > 250 | > 694 | –
Cc1nccc2c1[nH]c1ccc(OCCNC(=O)/C=C/c3cccc(F)c3)cc12 | 1.11 | 1.3 | Active | 37.6 | 33.9 | –
Cc1nc(Cn2cc(COC(=O)/C=C/c3cccc(F)c3)nn2)cc2c1[nH]c1ccccc12 | > 27.8 | > 27.8 | Active | – | – | –
Cc1nc(CNC(=O)/C=C/c2ccc(F)cc2)cc2c1[nH]c1ccccc12 | 4.13 | 13.3 | Active | 12.5 | 2.99 | –

SMILES | IC50 [1] [µM] | IC50 [2] [µM] | Activity [3] | IC50 [4] [µM] | selectivity ratio [5] | IC50 [3] [µM]
O=C(/C=C/c1ccc(C(F)(F)F)cc1)NCc1nccc2c1[nH]c1ccccc12 | > 55.6 | > 55.6 | – | – | – | –
Cc1nc(CNC(=O)/C=C/c2ccc(Cl)cc2)cc2c1[nH]c1ccccc12 | 2.92 | 8.38 | Active | 11.3 | 3.88 | –
O=C(/C=C/c1ccccc1)OCc1cn(Cc2nccc3c2[nH]c2ccccc23)nn1 | > 27.8 | > 20.2 | – | – | – | –
O=C(/C=C/c1ccc(Cl)cc1)OCc1cn(Cc2nccc3c2[nH]c2ccccc23)nn1 | > 55.6 | > 55.6 | – | – | – | –
Cc1nccc2c1[nH]c1ccc(OCCNC(=O)/C=C/c3ccccc3)cc12 | 1.55 | 2.47 | Active | 12 | 7.75 | –
Cc1nccc2c1[nH]c1ccc(OCc3cn(C/C=C/c4ccc(Cl)cc4)nn3)cc12 | 0.57 | 0.95 | Active | 3.95 | 6.93 | –
COc1ccc(/C=C/C(=O)NCc2nccc3c2[nH]c2ccccc23)cc1 | > 27.8 | > 27.8 | – | – | – | –
Cc1nc(CO)cc2c3ccccc3n(Cc3cn(C/C=C/c4ccccc4)nn3)c12 | > 27.8 | > 19.8 | Active | – | – | –
Cc1nc(CNC(=O)/C=C/c2ccccc2)cc2c1[nH]c1ccccc12 | 5.78 | 10.2 | Active | 7.05 | 1.29 | –
Cc1nccc2c1[nH]c1ccc(OCCNC(=O)/C=C/c3cccc(Br)c3)cc12 | 0.19 | 0.63 | Active | 7.57 | 39.8 | –
O=C(/C=C/c1cccc(Br)c1)OCc1cn(Cc2nccc3c2[nH]c2ccccc23)nn1 | > 13.2 | > 19.1 | – | – | – | –
O=C(/C=C/c1cccc(Br)c1)NCc1nccc2c1[nH]c1ccccc12 | > 27.8 | > 27.8 | – | – | – | –
O=C(/C=C/c1ccc(Cl)cc1)NCc1nccc2c1[nH]c1ccccc12 | > 27.8 | > 27.8 | – | – | – | –
Cc1nccc2c1[nH]c1ccc(OCCNC(=O)/C=C/c3ccc(F)cc3)cc12 | 0.95 | 1.67 | Active | > 250 | > 263 | –
Cc1nccc2c1[nH]c1ccc(OCCNC(=O)/C=C/c3ccc(C(F)(F)F)cc3)cc12 | 0.12 | 0.35 | Active | 3.59 | 29.9 | –
Cc1nc(CO)cc2c3ccccc3n(Cc3cn(C/C=C/c4cccc(Br)c4)nn3)c12 | 6.28 | 18.4 | Active | > 125 | > 19.9 | –
O=C(/C=C/c1ccccc1)NCc1nccc2c1[nH]c1ccccc12 | > 28 | > 55.6 | – | – | – | –
COc1ccc(/C=C/C(=O)OCc2cn(Cc3nccc4c3[nH]c3ccccc34)nn2)cc1 | > 55.6 | 39.2 | – | – | – | –
COc1ccc2c(c1)[nH]c1c(C)nccc12 [HARMINE] | – | > 27.7 | – | > 250 | 30 | –
Cc1nccc2c1[nH]c1ccc(OCCNC(=O)/C=C/c3cccc(C(F)(F)F)c3)cc12 | 0.12 | 0.32 | Active | 6.14 | 51.2 | –
Cc1nccc2c1[nH]c1ccc(OCc3cn(C/C=C/c4cccc(F)c4)nn3)cc12 | 0.55 | 2.28 | Active | 10.5 | 19.1 | –
Cc1nc(CNC(=O)/C=C/c2cccc(C(F)(F)F)c2)cc2c1[nH]c1ccccc12 | 2.01 | 7.4 | Active | 9.37 | 4.66 | –
COc1ccc2c3ccnc(C)c3n(CCNC(=O)/C=C/c3ccc(C(F)(F)F)cc3)c2c1 | 0.04 | 0.17 | – | 5.84 | 146 | 8.4
